The values below come from ChEMBL document CHEMBL1127231, “The isolation and in vivo Potent Antitumor activity of clerodane diterpenoid from the oleoresin of the brazilian medicinal plant, copaifera langsdorfi desfon” (1994).

The structures appear in SMILES notation.

Assay type in all cases: functional
The subject of assay [1] is Mus musculus. Kind of assay: Antitumor activity was evaluated by the increase in life span (I.L.S) against IMC carcinoma in mice at a dose of 77.6 mg/kg.
In assay [2] the test system is Mus musculus. Description: Antitumor activity was evaluated by the change in life span (day) against IMC carcinoma in mice at a dose of 77.6 mg/kg.
The subject of assay [3] is Mus musculus. Kind of assay: Antitumor activity was evaluated by the change in body weight against IMC carcinoma in mice at a dose of 77.6 mg/kg.
The subject of assay [4] is Mus musculus. Description: Antitumor activity was evaluated by the change in body weight against IMC carcinoma in mice at a dose of 9.0 mg/kg.
Assay [5] deals with Mus musculus. Kind of assay: Antitumor activity was evaluated by the change in life span (day) against IMC carcinoma in mice at a dose of 9.0 mg/kg.
Assay [6] deals with Mus musculus. Kind of assay: Antitumor activity was evaluated by the increase in life span (I.L.S) against IMC carcinoma in mice at a dose of 9.0 mg/kg.
The subject of assay [7] is Mus musculus. Kind of assay: Antitumor activity was evaluated by the change in life span (day) against IMC carcinoma in mice at a dose of 0.27 mg/kg.
Assay [8] relates to Mus musculus. Description: Antitumor activity was evaluated by the change in body weight against IMC carcinoma in mice at a dose of 0.27 mg/kg.
Assay [9] has as its system Mus musculus. Kind of assay: Antitumor activity was evaluated by the increase in life span (I.L.S) against IMC carcinoma in mice at a dose of 0.27 mg/kg.
For assay [10], the system named is Mus musculus. Description: Antitumor activity was evaluated by the change in body weight against IMC carcinoma in mice at a dose of 1.8 mg/kg.
Assay [11] has as its system Mus musculus. Description: Antitumor activity was evaluated by the increase in life span (I.L.S) against IMC carcinoma in mice at a dose of 1.8 mg/kg.
For assay [12], the system named is Mus musculus. Description: Antitumor activity was evaluated by the change in life span (day) against IMC carcinoma in mice at a dose of 1.8 mg/kg.
Assay [13] deals with Mus musculus. Description: Antitumor activity was evaluated by the change in life span (day) against IMC carcinoma in mice at a dose of 41.1 mg/kg.
For assay [14], the system named is Mus musculus. Description: Antitumor activity was evaluated by the increase in life span (I.L.S) against IMC carcinoma in mice at a dose of 41.1 mg/kg.
Assay [15] concerns Mus musculus. Description: Antitumor activity was evaluated by the change in body weight against IMC carcinoma in mice at a dose of 41.1 mg/kg.
Assay [16] relates to Mus musculus. Kind of assay: Antitumor activity was evaluated by the change in life span (day) against IMC carcinoma in mice at a dose of 20.7 mg/kg.
Assay [17] deals with Mus musculus. Kind of assay: Antitumor activity was evaluated by the change in body weight against IMC carcinoma in mice at a dose of 20.7 mg/kg.
Assay [18] deals with Mus musculus. Description: Antitumor activity was evaluated by the increase in life span (I.L.S) against IMC carcinoma in mice at a dose of 20.7 mg/kg.
For assay [19], the system named is Mus musculus. Kind of assay: Antitumor activity was evaluated by the change in body weight against IMC carcinoma in mice at a dose of 30.0 mg/kg.
Assay [20] relates to Mus musculus. Kind of assay: Antitumor activity was evaluated by the change in life span (day) against IMC carcinoma in mice at a dose of 30.0 mg/kg.
Assay [21] relates to Mus musculus. Kind of assay: Antitumor activity was evaluated by the increase in life span (I.L.S) against IMC carcinoma in mice at a dose of 30.0 mg/kg.

Regarding `C[C@H]1CC[C@]2(C)C(C(=O)O)=CCC[C@H]2[C@]1(C)CCc1ccoc1`, in the assay on Mus musculus [1], the ILS at 77.6 mg/kg came to 17%. For the same compound, the Life span in the assay on Mus musculus [2] was determined as 14.8 days. In addition, the “Change in body weight” value in the assay on Mus musculus [3] worked out at 1.6 g.

For `C=C1CC[C@H]2C(C)(C)CCC[C@]2(C)[C@H]1CC/C(C)=C/CO`, in the assay with Mus musculus [4], the “Change in body weight” value is given as 1.4 g. In the assay on Mus musculus [5], this compound came in with a Life span of 13 days. Besides, in the assay on Mus musculus [6], the ILS at 9 mg/kg amounted to 2%.

Compound `C=C1CCC[C@@H]2[C@](C)(CC/C(C)=C/CO)[C@@H](C)CC[C@]12C` displayed a Life span in the assay with Mus musculus [7] of 11.7 days. In addition, in the assay on Mus musculus [8], the “Change in body weight” value was 1.9 g. The ILS at 0.27 mg/kg with Mus musculus [9] was -8%.

Take `CC1=CCC[C@@H]2[C@@](C)(CC/C(C)=C/CO)[C@H](C)CC[C@]12C`: the “Change in body weight” value in the assay with Mus musculus [10] was determined as 1.4 g. Moreover, in the assay on Mus musculus [11], the ILS at 1.8 mg/kg was -3%. Also, the Life span in the assay on Mus musculus [12] is 12.3 days.

Turning to `CC1=CCC[C@@H]2[C@@](C)(CC/C(C)=C/CO)[C@H](C)CC[C@@]12C`, the Life span in the assay on Mus musculus [13] was found to be 25.2 days. The ILS at 41.1 mg/kg with Mus musculus [14] came out at 98%. Further, the “Change in body weight” value in the assay on Mus musculus [15] is recorded as 0.1 g.

Compound `C=C1CC[C@@H]2C(C)(C)CCC[C@@]2(C)[C@@H]1CC/C(C)=C/C(=O)O` [COPALIC ACID] yielded a Life span in the assay on Mus musculus [16] of 14 days. Moreover, in the assay on Mus musculus [17], the “Change in body weight” value is on record as 1.5 g. Besides, in the assay with Mus musculus [18], the ILS at 20.7 mg/kg amounted to 10%.

Take `O=c1[nH]cc(F)c(=O)[nH]1` [FLUOROURACIL]: the “Change in body weight” value in the assay with Mus musculus [19] is -1.8 g. Also, in the assay with Mus musculus [20], the Life span came to 18.5 days. In the assay with Mus musculus [21], the ILS at 30 mg/kg is 46%.
